This is an account of results in paper PMC4904373, “Azole Antifungal Sensitivity of Sterol 14α-Demethylase (CYP51) and CYP5218 from Malassezia globosa” (Scientific Reports, 2016).

Series [1] deals with T1, M. globosa CYP51 (Malassezia globosa, UniProt A8Q3I7, A7V/E4L/G6A/I5L/L2A/Q3L/W8F). In words: biochemical. The format is binding. On the procedure:
(§1) Reduced carbon monoxide difference spectroscopy[46][47] and absolute spectra between 700 and 300 nm were used to determine cytochrome P450 concentrations. Substrate and azole binding studies were performed[31][48] using 2.5 mM stock sterol solutions in 40% (wt/vol) (2-hydroxypropyl)-β-cyclodextrin (HPCD), 4 mg ml^−1 solutions of fatty acids in dimethylformamide (DMF), and stock 0.05, 0.1 and 0.2 mg ml^−1 solutions of azole antifungal agents in dimethylsulfoxide (DMSO). Sterols were titrated against 5 μM CYP51, fatty acids were titrated against 4 μM CYP5218 and azole antifungal agents were titrated against 2 μM CYP51 and CYP5218. The absorbance difference spectrum between 500 and 350 nm was determined after each incremental addition of ligand with saturation curves constructed from ΔApeak-trough against ligand concentration. The dissociation constants (Kd) for sterols and fatty acids were determined by non-linear regression (Levenberg-Marquardt algorithm) using the Michaelis-Menten equation. The dissociation constants of the enzyme-azole complex were determined by non-linear regression (Levenberg-Marquardt algorithm) using a rearrangement of the Morrison equation for tight ligand binding. ProFit 6.1.12 (QuantumSoft, Zurich, Switzerland) was used for curve-fitting data. All ligand-binding studies were performed at 22 ± 2 °C and in triplicate. All spectral determinations were made using a Hitachi U-3310 UV/VIS spectrophotometer (San Jose, California).

Series [2] deals with T1, M. globosa CYP51. Particulars: 0.5 μM CYP51, 50 μM sterol substrate. The method, then: (§2) Sterol metabolites were recovered by extraction with ethyl acetate followed by derivatization with 0.1 ml N,O-bis(trimethylsilyl)trifluoroacetamide (BSTFA) : trimethylchlorosilane (TMCS) (99:1) and 0.3 ml anhydrous pyridine (2 h at 80 °C) prior to analysis by gas chromatography mass spectrometry (GC/MS)[53].

Series [3] has as its target T2, M. globosa CYP5218 (Malassezia globosa, UniProt A8QCD3, A3L/A5L/F6A/I7V/S4L/S8F). As to the kind of experiment: biochemical. The class given is binding. Particulars: for binding spectra with CYP5218: result in words; for Kd / CYP5218 Kd (μM) Eadie-Hofstee / CYP5218 Kd (μM) Michaelis-Menten: 4 μM CYP5218, type I spectra, mean of three replicates with SD. On the procedure:
as §1, with “The dissociation constants (Kd) for sterols and fatty acids were determined by non-linear regression (Levenberg-Marquardt algorithm) using the Michaelis-Menten equation.” left out

In series [4] the target is T2, M. globosa CYP5218. As to the kind of experiment: biochemical. The class given is binding. The following applies: for azole binding to CYP5218 (binding spectra): 2 μM CYP5218, result in words; for Kd: azole titrated against 2 μM CYP5218. On the procedure:
as §1

In series [5] the target is T1, M. globosa CYP51. In words: biochemical. The following applies: IC50, 0.5 μM CYP51, CYP51:AfCPR1 1:2, 50 μM lanosterol as substrate. On the procedure: as §2
The test system of series [6] is M. globosa ATCC MYA-4612. As to the kind of experiment: M. globosa MIC100 determination. The following applies: Malassezia globosa, 168 h; modified Dixon medium, 30 °C, 7 days; read-out: MIC100. The class given is cell-based, Malassezia globosa. On the procedure: M. globosa ATCC MYA-4612 was grown for 7 days at 30 °C in modified Dixon medium (3.6% malt extract, 2% desiccated ox-bile, 1% Tween 40, 0.6% peptone, 0.2% glycerol, 0.2% oleic acid, pH adjusted to 6 with HCl) until a culture density of 1.5 × 10^5 cells ml^−1 was obtained. Cells from 3 ml of stock culture were harvested, suspended in 1 ml of saline and used to inoculate 30 ml of fresh modified Dixon medium for use as M. globosa inoculums in MIC determinations. Stock azole concentrations of 1600, 800, 400, 200, 100, 50, 25, 12.5, 6.25, 3.125 and 0 μg ml^−1 were prepared in DMSO. These were diluted ten-fold with fresh modified Dixon media and 20 μl of the diluted azole solutions were then mixed with 180 μl of M. globosa inoculum in microtiter plate wells to yield final azole concentrations of 16, 8, 4, 2, 1, 0.5, 0.25, 0.125, 0.0625, 0.03125 and 0 μg ml^−1. The microtiter plates were incubated at 30 °C for 7 days and then read. Each azole MIC100 determination was performed in triplicate.

The target of series [7] is T2, M. globosa CYP5218. Particulars: 100 μM fatty acid, 1 hour to overnight (~16 h), three different cytochrome P450 reductase redox partners.
Procedure: The CYP5218 fatty acid reconstitution assay system used was based on that previously described by Guengerich[54] and contained 200 nM of CYP5218, 500 nM of cytochrome P450 reductase (A. fumigatus CPR1[52]) or H. sapiens CPR[55] or C. albicans CPR[56], 50 μM DLPC, 100 μM fatty acid (lauric acid, myristic acid, palmitic acid, palmitoleic acid, oleic acid and linoleic acid), 4 mM glucose-6-phosphate, 3 U/ml yeast glucose-6-phosphate dehydrogenase in a final volume of 500 μl with 0.1 M potassium phosphate (pH 7.4). Assay mixtures were incubated at 37 °C for 5 min prior to initiation with 4 mM β-NADPHNa4 and then incubated for a further 60 min or overnight (~16 h) at 37 °C. Fatty acid metabolites were recovered by extraction with dichloromethane and dried in a vacuum centrifuge. Samples were derivatized with 200 μl anhydrous pyridine and 250 μl BSTFA:TMCS (99:1) (30 min at 80 °C) and extracted with 500 μl of hexane, prior to analysis by GC/MS (Thermo GC Trace 1300 and ISQ MS). GC analysis was performed with a 5% phenyl methylpolysiloxane column (DB5) (Agilent Technologies). The oven programme was as follows: initial: 70 °C, with 3 min hold; ramp: 10 °C min^−1 to 180 °C (held for 2 min), 10 °C min^−1 to 250 °C (held for 2 min) and 10 °C min^−1 to 280 °C (held for 2 min). Data were analyzed using Thermo Xcalibur 2.2 software.
For series [8], the system named is M. globosa. In words: Sterol analysis of azole-treated M. globosa. The format is cell-based, Malassezia globosa. The following applies: 0.125 μg ml^−1 ketoconazole. The method, then: Individual sterols were identified by reference to relative retention times, mass ions and fragmentation patterns. Sterol composition was calculated using peak areas.
Series [9] concerns C=C(CC[C@@H](C)[C@H]1CC[C@@]2(C)C3=C(CC[C@]12C)[C@@]1(C)CC[C@H](O)C(C)(C)[C@@H]1CC3)C(C)C. As to the kind of experiment: purified protein, by the assay type. Particulars: other: 0.13 μM CYP51, 0.5 μM AfCPR1, 5 min at 37 °C, substrate inhibition equation.
Procedure: (§3) Assay mixtures were incubated at 37 °C for 10 minutes prior to initiation with 4 mM β-NADPHNa4 followed by shaking at 37 °C for 20 minutes. Sterol metabolites were recovered by extraction with ethyl acetate followed by derivatization with 0.1 ml N,O-bis(trimethylsilyl)trifluoroacetamide (BSTFA) : trimethylchlorosilane (TMCS) (99:1) and 0.3 ml anhydrous pyridine (2 h at 80 °C) prior to analysis by gas chromatography mass spectrometry (GC/MS)[53].
Series [10] relates to C=C(CC[C@@H](C)[C@H]1CC[C@@]2(C)C3=C(CC[C@]12C)[C@@]1(C)CC[C@H](O)[C@@H](C)[C@@H]1CC3)C(C)C. In words: purified protein, by the assay type. Particulars: other: 0.13 μM CYP51, 0.5 μM AfCPR1, 5 min at 37 °C, substrate inhibition equation.
Procedure: as §3
Setting [11] is: CYP5218 Kd (μM) Michaelis-Menten.

In general, Kd refers to the constant that tells how readily two partners part at equilibrium. Usually IC50 stands for the midpoint of a concentration-inhibition curve. Read a high IC50 as a need for much substance. In general, Km refers to the concentration of substrate that gives half-maximal velocity. As usually defined, the kcat is the maximal rate divided by the concentration of active sites.

≈ marks a conversion by molar mass, not a printed value. Where “and” joins values, the source holds several entries; their conditions need not be identical. Equal values may be shown once. Read-outs that look alike come from different tables or passages of the source.

T1 sequence (A8Q3I7 whole entry L2A/Q3L/E4L/I5L/G6A/A7V/W8F): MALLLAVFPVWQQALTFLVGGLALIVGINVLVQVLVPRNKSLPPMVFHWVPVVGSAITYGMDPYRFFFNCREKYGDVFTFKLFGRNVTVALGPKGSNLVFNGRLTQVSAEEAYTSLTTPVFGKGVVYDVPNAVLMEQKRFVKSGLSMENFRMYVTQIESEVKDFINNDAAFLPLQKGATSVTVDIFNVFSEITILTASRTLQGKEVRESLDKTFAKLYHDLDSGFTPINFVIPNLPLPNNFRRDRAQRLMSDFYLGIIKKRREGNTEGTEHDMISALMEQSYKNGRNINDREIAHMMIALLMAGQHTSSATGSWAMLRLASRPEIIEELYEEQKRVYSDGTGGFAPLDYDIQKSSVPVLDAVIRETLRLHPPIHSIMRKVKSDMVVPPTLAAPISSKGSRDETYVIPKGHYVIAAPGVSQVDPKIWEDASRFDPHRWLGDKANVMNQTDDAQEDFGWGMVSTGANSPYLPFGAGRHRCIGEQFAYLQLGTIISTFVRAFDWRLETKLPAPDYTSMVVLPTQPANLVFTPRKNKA

In series [1], `C=C(CC[C@@H](C)[C@H]1CC[C@@]2(C)C3=C(CC[C@]12C)[C@@]1(C)CC[C@H](O)[C@@H](C)[C@@H]1CC3)C(C)C` [obtusifoliol] came in with a Kd of 28 µM. The compound further yielded a turnover number in [2] of 3.4 min⁻¹.
The compound `CC(C)=CCC[C@@H](C)[C@H]1CC[C@@]2(C)C3=C(CC[C@]12C)[C@@]1(C)CC[C@H](O)C(C)(C)[C@@H]1CC3` [lanosterol] gave a Kd in [1] of 32 µM. Besides, the turnover number in series [2] was 1.7 min⁻¹. Further, the “binding spectra with CYP5218” value in [3] is recorded as “failed to give reproducible binding spectra”.
Compound `C=C(CC[C@@H](C)[C@H]1CC[C@@]2(C)C3=C(CC[C@]12C)[C@@]1(C)CC[C@H](O)C(C)(C)[C@@H]1CC3)C(C)C` [eburicol] had a Kd in series [1] of 23 µM. Moreover, the turnover number in [2] is 5.6 min⁻¹. In addition, the “binding spectra with CYP5218” value in [3] is listed as “failed to give reproducible binding spectra”.
Regarding `CCC(C)n1ncn(-c2ccc(N3CCN(c4ccc(OCC5COC(Cn6cncn6)(c6ccc(Cl)cc6Cl)O5)cc4)CC3)cc2)c1=O` (stereo not shown) [itraconazole], the “azole binding to CYP5218 (binding spectra)” value (“azole binding to CYP5218” below) in [4] was “type II binding spectra”. The Kd in series [4] is ~0.4 µM and 0.407 µM; in [1] it was 0.002 ± 0.001 µM. The compound also had an IC50 in [5] of 0.188 ± 0.008 µM. The MIC in [6] amounted to 0.0625 µg/mL (≈ 0.0886 µM).
`C=CCCCCCCCCCCCCCC` [1-hexadecene]: the “binding spectra with CYP5218” value in [3] is “No binding spectra”.
Consider `C[C@@H](c1ncncc1F)[C@](O)(Cn1cncn1)c1ccc(F)cc1F` [voriconazole], for which the results for the Kd in series [4] and in [1] were about 107 µM and 0.008 ± 0.005 µM, respectively. In addition, in series [6], the MIC worked out at 1 µg/mL (≈ 2.86 µM).
Regarding `CCCCCCCC/C=C\CCCCCCCC(=O)O` [Oleic acid, oleic acid], in series [7], the “product formation in CYP5218 reconstitution assay” value (“product formation” below) is on record as “no observed product formation”. Besides, the dissociation constant (Kd) in [3] (CYP5218 Kd (μM) Eadie-Hofstee) amounted to 90 ± 16 µM; in series [3] (setting [11]), 93 ± 11 µM.
As for `CCCCC/C=C\C/C=C\C/C=C\C/C=C\CCCC(=O)O` [Arachidonic acid, arachidonic acid], the values for the equilibrium dissociation constant (Kd) in series [3] (CYP5218 Kd (μM) Eadie-Hofstee) and in [3] (setting [11]) were 256 ± 36 µM and 264 ± 34 µM, respectively.
Regarding `Clc1ccccc1C(c1ccccc1)(c1ccccc1)n1ccnc1` [clotrimazole], in [4], the “azole binding to CYP5218” value is “type II binding spectra”; the Kd is ~0.5 µM and 0.486 µM. In [1], this compound gave a Kd of 0.004 ± 0.002 µM. Further, in series [6], the MIC turned out to be 8 µg/mL (≈ 23.2 µM).
In the case of `CCCC/C=C\CCCCCCCC(=O)O` [Myristoleic acid, myristoleic acid], the Kd in [3] (CYP5218 Kd (μM) Eadie-Hofstee) was 151 ± 8 µM; in [3] (setting [11]), 158 ± 20 µM.
Turning to `CCCCC/C=C\C/C=C\CCCCCCCC(=O)O` [linoleic acid], the “product formation” value in series [7] is “no observed product formation”. The Kd in [3] (CYP5218 Kd (μM) Eadie-Hofstee) turned out to be 36 ± 6 µM; in series [3] (setting [11]) it was 36 µM.
With `CCCCCCCCCCCCCCCC` [n-hexadecane], the “binding spectra with CYP5218” value in [3] is given as “No binding spectra”.
With `CCCCCC/C=C\CCCCCCCC(=O)O` [Palmitoleic acid, palmitoleic acid], the “product formation” value in series [7] is “no observed product formation”. Also, the Kd in series [3] (CYP5218 Kd (μM) Eadie-Hofstee) was determined as 114 ± 5 µM; in series [3] (setting [11]), 113 ± 7 µM.
In the case of `CCCCCCCCCC(=O)O` [Capric acid, capric acid], in [3], the “CYP5218 Kd (μM) Eadie-Hofstee” value is “no binding”, the “CYP5218 Kd (μM) Michaelis-Menten” value is “no binding” and the “binding spectra with CYP5218” value is on record as “No binding spectra”.
`CC(=O)N1CCN(c2ccc(OCC3COC(Cn4ccnc4)(c4ccc(Cl)cc4Cl)O3)cc2)CC1` (stereo not shown) [ketoconazole]: in series [4], the “azole binding to CYP5218” value was “type II binding spectra” and the equilibrium dissociation constant (Kd) is about 1.6 µM. Moreover, in series [1], the Kd is 0.002 ± 0.001 µM. For the same compound, the IC50 in series [5] came to 0.176 ± 0.016 µM. Also, the MIC in series [6] worked out at 0.25 µg/mL (≈ 0.47 µM). Moreover, in series [8], the “sterol fraction (%) 4,4-dimethylzymosterol” value is 0%, the “sterol fraction (%) Eburicol” value was determined as 30.33%, the “sterol fraction (%) Episterol” value is given as 0% and the “sterol fraction (%) Ergosta-7-enol” value turned out to be 1.58%. Also, in [8], the “sterol fraction (%) Ergosta-8,22-dienol” value is listed as 1.89%, the “sterol fraction (%) Ergosta-8-enol” value came out at 2.23%, the “sterol fraction (%) Ergosterol” value is 51.50% and the “sterol fraction (%) Fecosterol” value is 0.98%. Besides, the “sterol fraction (%) Obtusifoliol” value in series [8] stood at 0.18%. For the same compound, in series [8] (cholesterol assimilated from growth media), the “sterol fraction (%) Cholesterol” value worked out at 1.92%.
On to `CCCCCCCCCCCCCCCCCCCC(=O)O` [Arachidic acid, arachidic acid], for which, in series [3], the “CYP5218 Kd (μM) Eadie-Hofstee” value was “no binding”, the “CYP5218 Kd (μM) Michaelis-Menten” value is listed as “no binding” and the “binding spectra with CYP5218” value is on record as “No binding spectra”.
As for `CCCCCCCCCCCCCCCCCC(=O)O` [Stearic acid, stearic acid], in series [3], the “CYP5218 Kd (μM) Eadie-Hofstee” value was “no fit ^a” and the “CYP5218 Kd (μM) Michaelis-Menten” value is reported as “no fit ^a”.
For `CC/C=C\CCCCCCCC(=O)O` [Lauroleic acid, lauroleic acid], the “CYP5218 Kd (μM) Michaelis-Menten” value in [3] is reported as “poor fit”. For the same compound, the Kd in series [3] (read-out: CYP5218 Kd (μM) Eadie-Hofstee) worked out at 148 ± 20 µM.
With “M. globosa CYP51 (Malassezia globosa CBS 7966; A7V/E4L/G6A/I5L/L2A/Q3L/W8F)”, the results for the Km in series [9] and in series [10] were 55.91 ± 19.79 µM and 42.09 ± 10.45 µM, respectively. Further, the kcat was found to be 1.092 ± 0.2675 s⁻¹ in [9] and 0.8948 ± 0.2368 s⁻¹ in series [10].
With `CCCCCCCCCCCCCCCC(=O)O` [Palmitic acid, palmitic acid], the “product formation” value in [7] was “no observed product formation”. In addition, the Kd in [3] (CYP5218 Kd (μM) Eadie-Hofstee) was determined as 253 ± 77 µM; in series [3] (setting [11]), 1020 ± 755 µM.
